In experiment [1] the test system is human leukemia HL-60 cells. As to the kind of experiment: HL-60 cell growth inhibition (72 h). Format: cell-based. Conditions: HL-60, 72 h, 0.2% DMSO, read-out: ID50, M [HL-60 cell growth (72 h)] (A). How it is done: For cell growth inhibition studies, HL-60 cells […]) were grown in RPMI 1640 media at 37° C. in humidified 5% CO2 for 72 h. Viable cells were counted with the trypan blue exclusion method. The fractional inhibitions at four or five concentrations of compounds (in 0.2% DMSO) were analyzed with a median-effect plot (Chou, T.-C., et al., Adv. Enzyme Regul. 22:27 (1984)) by using a computer program. (Chou, J.; Chou, T.-C. Dose-Effect Analyses with Microcomputer. Quantitation of ID50, LD50, Synergism, Antagonism, Low-dose Risk, Receptor-Binding and Enzyme Kinetics; IBM-PC Series, Elsevier-Biosoft, Elsevier Scientific: Cambridge, U.K., (1986)). The median-effect concentration (ID50) was automatically determined for the x intercept of the median-effect plot. Cell growth in the absence of a compound and in the presence of DMSO was used as a control. DMSO (0.2%) alone inhibited cell growth 3.8±1.2% during the 72-h incubation period.

For experiment [2], the system named is [^3 H]TdR incorporation into DNA in HL-60 cells. As to the kind of experiment: Inhibition of [3H]TdR incorporation into DNA in HL-60 cells (initial 30 min). Format: cell-based, human. Conditions: for IC50: HL-60, initial 30 min exposure, read-out: ID50, M (HL-60 TdR into DNA (B)); for B/A: ratio of ID50 for TdR incorporation (B) to ID50 for cell growth (A), HL-60. How it is done:
For precursor incorporation studies, each compound at four to six concentrations (0.2% DMSO) was preincubated with HL-60 cells (2.5×10^6 /Ml) for 15 min prior to the addition of [^3 H-methyl]TdR (1 μCi, 0.15 nmol/mL) and was incubated for 30 min. […] The incorporation of radioactivity in DNA in the absence of an analogue in the presence of DMSO was used as a control.

The test system of experiment [3] is DNA (native and thermally denatured). As to the kind of experiment: Spectrophotometric study of DNA interaction. Format: binding, calf thymus. Conditions: for interaction with DNA: absorption spectra, native and thermally denatured DNA. How it is done:
Some representative compounds were studied for their ability to interact with nucleic acids in solution by comparison of the electronic spectrum of drug alone with that of the drug in the presence of an excess of nucleic acid. All drugs studied have an absorption band in the visible region, separate from the absorption band of the nucleic acids, and therefore any changes in band intensity and position were indicative of drug chromophore-DNA interaction.
Absorption spectra were measured with an IBM 9410 UV-visible spectrometer interfaced to an HP 9826 computer. Small volumes of the stock drug solutions (2 mg/mL in Me2 SO) were added to 2 mL of buffer (0.01 or 0.1 M NaCl, 5 mM Hepes, pH 7) to obtain a final drug concentration of 5-15 μM, or to the solution of native or thermally denatured DNA (0.2 and 0.1 mM, respectively) in the buffer. After incubation at room temperature for 10 min, the spectra were recorded in the 300-600 nm range (increment 1 nm) and corrected by subtracting the spectrum of the blank which was measured before addition of the drug.

Experiment [4] deals with mouse leukemia L1210 cells. As to the kind of experiment: Inhibition of L1210 cell growth. It is filed as cell-based. Here is the method:
Preliminary biological data for inhibiting cell growth of murine L1210 leukemic cells and human acute promyelocytic leukemia cells (HL-60) during 72 h of exposure to the compounds are given in Table IV. The potencies for inhibiting [^3 H]TdR incorporation into DNA in HL-60 cells during the initial 30-min period are also given in Table IV. It is interesting to note that 1,8-di-O-methyl derivatives are uniformly devoid of activity against L1210 leukemic cells. […] The B/A ratios allow an indirect estimation of whether or not cytotoxicities exerted by these analogues are primarily due to initial inhibition of DNA synthesis. […] Whether these analogues, like m-AMSA, ellipticine, or anthracyclines, act by inhibiting DNA topoisomerase II remains to be explored. […] Our preliminary experiments indicate that the compounds arrest cells in the S and/or G2 phases of the cell cycle (unpublished results).

Setting [5] is: Mus musculus, Table IV, L1210, 72 h exposure, read-out: ID50, M (L1210 cell growth).
Setting [6] is: Mus musculus, L1210, Table I, read-out: ID50 (the source's name).
The mark [7] stands for this setting: Mus musculus, L1210, Table I, read-out: ID50 (μg/mL).

In brackets after ≈: the same amount, converted by molar mass. Like-named read-outs stand apart in the source and are kept apart here. Bounds are passed on as bounds.

Turning to “3-[(Diethylamino)methyl]-(or 8)-hydroxy-8(or 1)-methoxy-9,10-anthraquinone [Xa-1]”, the IC50 turned out to be 5.2 µM in experiment [1]; 14 µM in experiment [2]; 11.9 µM in experiment [4] (Table II, antileukemic activity, read-out: L1210: ID50). In addition, the B/A in experiment [2] turned out to be 2.7. The “interaction with DNA” value in experiment [3] is “interact with both native and thermally denatured DNA but more strongly with native DNA”.

As for `O=C1c2cccc(O)c2C(=O)c2c(O)cc(C(Br)Br)cc21` [VIIIa, 3-(Dibromomethyl)-1,8-dihydroxy-9,10-anthraquinone], the IC50 in experiment [1] (Homo sapiens) came out at 2.5 µM; in experiment [2] (Homo sapiens, 0.5 h), 39 µM; in experiment [4] (setting [5]) it was 0.44 µM. Moreover, the B/A in experiment [2] was determined as 15.6.

As to `COc1cc(O)c2c(c1)C(=O)c1cc(C(Br)Br)cc(O)c1C2=O` [VIIIb, 6-(Dibromomethyl)-3-methoxy-1,8-dihydroxy-9,10-anthraquinone], the IC50 in experiment [1] (Homo sapiens) worked out at 0.19 µM; in experiment [2] (Homo sapiens, 0.5 h), 110 µM; in experiment [4] (setting [5]), 0.001 µM. The B/A in experiment [2] is listed as 579.

Turning to `O=C1c2cccc(O)c2C(=O)c2c(O)cc(CBr)cc21` [VIa, 3-bromomethyl-1,8-dihydroxy-9,10-anthraquinone], the IC50 was determined as 7.1 µM in experiment [1] (Homo sapiens); 16 µM in experiment [2] (Homo sapiens, 0.5 h); 8.6 µM in experiment [4] (setting [5]). Also, the B/A in experiment [2] came to 2.3.

With `COc1cc(O)c2c(c1)C(=O)c1cc(CBr)cc(O)c1C2=O` [VIb, 3-bromomethyl-1,8-dihydroxy-6-methoxy-9,10-anthraquinone], the IC50 amounted to 25 µM in experiment [1] (Homo sapiens); 340 µM in experiment [2] (Homo sapiens, 0.5 h); 59 µM in experiment [4] (setting [5]). The B/A in experiment [2] is 13.6.

For the molecule `CCN(CC)Cc1cc(O)c2c(c1)C(=O)c1cccc(O)c1C2=O` [XIa-1, 3-[N,N-diethylamino)methyl-1,8-dihydroxy-9,10-anthraquinone], the IC50 stood at 1.8 µM in experiment [1] (Homo sapiens); 14 µM in experiment [2] (Homo sapiens, 0.5 h); 2.8 µM in experiment [4] (setting [6]); 0.99 µg/mL in experiment [4] (setting [7]); 2.75 µM in experiment [4] (Mus musculus, L1210, Table II, antileukemic activity, read-out: L1210: ID50); 280 µM in experiment [4] (setting [5]). Besides, in experiment [2], the B/A is 7.8. The “interaction with DNA” value in experiment [3] was “interact with both native and thermally denatured DNA but more strongly with native DNA”.

With `O=C1c2cccc(O)c2C(=O)c2c(O)cc(CN(CCO)CCO)cc21` [XIa-2, 3-[N,N-bis(2-hydroxyethyl)amino] methyl-1,8-dihydroxy-9,10-anthraquinone], the IC50 in experiment [1] (Homo sapiens) amounted to 3.3 µM; in experiment [2] (Homo sapiens, 0.5 h) it was 14 µM; in experiment [4] (setting [6]), 5.9 µM; in experiment [4] (setting [7]) it was 2.33 µg/mL. The B/A in experiment [2] is reported as 4.2.

Regarding `CNC(=O)OCCN(CCOC(=O)NC)Cc1cc(O)c2c(c1)C(=O)c1cccc(O)c1C2=O` [XIa-4], the IC50 in experiment [1] (Homo sapiens) was 210 µM; in experiment [2] (Homo sapiens, 0.5 h), 28 µM; in experiment [4] (setting [5]) it was over 18 µM. In addition, the B/A in experiment [2] was determined as 0.13.

For `CCNCc1cc(O)c2c(c1)C(=O)c1cccc(O)c1C2=O` [XIa-5, 3-[N-ethylamino)methyl-1,8-dihydroxy-9,10-anthraquinone], the IC50 was determined as 8.7 µM in experiment [1] (Homo sapiens); 18 µM in experiment [2] (Homo sapiens, 0.5 h); 0.77 µM in experiment [4] (setting [6]); 0.26 µg/mL in experiment [4] (setting [7]). Besides, in experiment [2], the B/A stood at 2.1.

With `NCc1cc(O)c2c(c1)C(=O)c1cccc(O)c1C2=O` [XIa-8], the IC50 stood at 11 µM in experiment [1] (Homo sapiens); 25 µM in experiment [2] (Homo sapiens, 0.5 h); 8.5 µM in experiment [4] (setting [5]). For the same molecule, the B/A in experiment [2] stood at 2.3.

`CN(C)Cc1cc(O)c2c(c1)C(=O)c1cccc(O)c1C2=O` [XIa-9]: the IC50 turned out to be 2.7 µM in experiment [1] (Homo sapiens); 9.3 µM in experiment [2] (Homo sapiens, 0.5 h); 2.2 µM in experiment [4] (setting [5]). The B/A in experiment [2] is 3.3.

For `CCCCNCc1cc(O)c2c(c1)C(=O)c1cccc(O)c1C2=O` [XIa-10], the IC50 in experiment [1] (Homo sapiens) worked out at 4.1 µM; in experiment [2] (Homo sapiens, 0.5 h), 25 µM; in experiment [4] (setting [5]) it was 4.6 µM. The B/A in experiment [2] was determined as 6.1.

Consider `O=C1c2cccc(O)c2C(=O)c2c(O)cc(CNCCCO)cc21` [XIa-11], for which the IC50 came out at 3.2 µM in experiment [1] (Homo sapiens); 16 µM in experiment [2] (Homo sapiens, 0.5 h); 0.67 µM in experiment [4] (setting [5]). Besides, the B/A in experiment [2] was 5.0.

Turning to `CC(C)NC(=O)OCCN(CCOC(=O)NC(C)C)Cc1cc(O)c2c(c1)C(=O)c1cccc(O)c1C2=O` [XIa-12], the IC50 in experiment [1] (Homo sapiens) stood at 27 µM; in experiment [2] (Homo sapiens, 0.5 h) it was 17 µM; in experiment [4] (setting [5]) it was 27 µM. The B/A in experiment [2] was found to be 0.63.

With `O=C1c2cccc(O)c2C(=O)c2c(O)cc(CN3CCCC3)cc21` [XIa-13], the IC50 was determined as 2.1 µM in experiment [1] (Homo sapiens); 10 µM in experiment [2] (Homo sapiens, 0.5 h); 1.6 µM in experiment [4] (setting [5]). Also, the B/A in experiment [2] is listed as 4.8.

As to `O=C1c2cccc(O)c2C(=O)c2c(O)cc(CN3CCCCC3)cc21` [XIa-14], the IC50 in experiment [1] (Homo sapiens) was 2.8 µM; in experiment [2] (Homo sapiens, 0.5 h) it was 63 µM; in experiment [4] (setting [5]), 4 µM. In addition, the B/A in experiment [2] turned out to be 22.5.

In the case of `O=C1c2cccc(O)c2C(=O)c2c(O)cc(Cn3ccnc3)cc21` [XIa-15], the IC50 in experiment [1] (Homo sapiens) came out at 4.8 µM; in experiment [2] (Homo sapiens, 0.5 h) it was 43 µM; in experiment [4] (setting [5]) it was 7.4 µM. In addition, the B/A in experiment [2] came out at 9.0.

For `CCN(CC)Cc1cc(O)c2c(c1)C(=O)c1cc(OC)cc(O)c1C2=O` [XIb-1, 3-(N,N-diethylamino)methyl-1,8-dihydroxy-6-methoxy-9,10-anthraquinone], the IC50 is 3.4 µM in experiment [1] (Homo sapiens); 35 µM in experiment [2] (Homo sapiens, 0.5 h); 1.16 µM in experiment [4] (setting [6]); 0.51 µg/mL in experiment [4] (setting [7]); 1.2 µM in experiment [4] (setting [5]). Further, the B/A in experiment [2] was determined as 10.3.

Take `COc1cc(O)c2c(c1)C(=O)c1cc(CN(CCO)CCO)cc(O)c1C2=O` [XIb-2, 3-[N,N-bis(2-hydroxyethyl)amino]methyl-1,8-dihydroxy-6-methoxy-9,10-anthraquinone]: the IC50 in experiment [1] (Homo sapiens) was found to be 6.6 µM; in experiment [2] (Homo sapiens, 0.5 h) it was 45 µM; in experiment [4] (setting [6]), 13.7 µM; in experiment [4] (setting [7]), 5.8 µg/mL; in experiment [4] (setting [5]), 14 µM. In experiment [2], the B/A is reported as 5.2. The “interaction with DNA” value in experiment [3] was “interact with both native and thermally denatured DNA but more strongly with native DNA”.

In the case of `COc1cc(O)c2c(c1)C(=O)c1cc(CN(CCCl)CCCl)cc(O)c1C2=O` [XIb-3, 3-[N,N-bis(2-chloroethyl)amino]methyl-1,8-dihydroxy-6-methoxy-9,10-anthraquinone], the IC50 in experiment [1] stood at 0.61 µM; in experiment [2], 12 µM; in experiment [4] (Table I, read-out: ID50 (the source's name)), 0.023 µM. Moreover, in experiment [2], the B/A is 19.7. Besides, the “interaction with DNA on increase of salt concentration” value in experiment [3] (Na concentration increased from 0.01 to 0.1 M) is listed as “lost the ability to interact with DNA”. In experiment [4] (Table I), the “ID50” value was 0.010 µg/mL (≈ 0.0236 µM).

Regarding `CCNCc1cc(O)c2c(c1)C(=O)c1cc(OC)cc(O)c1C2=O` [XIb-5, 3-(N-ethylamino)methyl-1,8-dihydroxy-6-methoxy-9,10-anthraquinone], the IC50 in experiment [1] (Homo sapiens) came to 2.1 µM; in experiment [2] (Homo sapiens, 0.5 h), 13 µM; in experiment [4] (setting [6]), 0.44 µM; in experiment [4] (setting [7]), 0.18 µg/mL; in experiment [4] (setting [5]), 0.72 µM. Besides, the B/A in experiment [2] was found to be 6.2.

For the origin of these results see US5053431A, “Derivatives of chrysophanol as topoisomerase II inhibitors” (Sloan-Kettering Institute For Cancer Research, priority 1990, dated 1991).
